Results published in patent US10544143B2, “4-azaindole compounds” (BRISTOL-MYERS SQUIBB COMPANY, priority 2017, dated 2020).

Legend:
[1] = target: human TLR8 (Homo sapiens (Human), UniProt Q9NR97); assay: TLR8 inhibition reporter assay (HEK-Blue SEAP); conditions: read-out: TLR8 IC50; HEK-Blue cells overexpressing human TLR8, SEAP reporter, R848 15.9 μM;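 further: SEAP driven by IFN-β minimal promoter carrying NF-κB and AP-1 sites, compounds dosed 0.05 nM to 50 µM for 22 h, inhibition scaled between agonist-plus-DMSO and reference-inhibitor wells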
[2] = target: human TLR7 (Homo sapiens (Human), UniProt Q9NYK1); assay: TLR7 inhibition reporter assay (HEK-Blue SEAP); type: cell-based; conditions: HEK-Blue cells overexpressing human TLR7, SEAP reporter, gardiquimod 7.5 μM
[3] = target: human TLR9 (Homo sapiens (Human), UniProt Q9NR96); assay: TLR9 inhibition reporter assay (HEK-Blue SEAP); conditions: read-out: TLR9 IC50; HEK-Blue cells overexpressing human TLR9, SEAP reporter, ODN2006 5 nM;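 further: SEAP driven by an IFN-β minimal promoter with NF-κB and AP-1 sites, read after 22 h, compounds dosed 0.05 nM–50 µM, inhibition scaled between agonist plus DMSO and reference-inhibitor wells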
Chain of human TLR9 (Q9NR96 26-1032): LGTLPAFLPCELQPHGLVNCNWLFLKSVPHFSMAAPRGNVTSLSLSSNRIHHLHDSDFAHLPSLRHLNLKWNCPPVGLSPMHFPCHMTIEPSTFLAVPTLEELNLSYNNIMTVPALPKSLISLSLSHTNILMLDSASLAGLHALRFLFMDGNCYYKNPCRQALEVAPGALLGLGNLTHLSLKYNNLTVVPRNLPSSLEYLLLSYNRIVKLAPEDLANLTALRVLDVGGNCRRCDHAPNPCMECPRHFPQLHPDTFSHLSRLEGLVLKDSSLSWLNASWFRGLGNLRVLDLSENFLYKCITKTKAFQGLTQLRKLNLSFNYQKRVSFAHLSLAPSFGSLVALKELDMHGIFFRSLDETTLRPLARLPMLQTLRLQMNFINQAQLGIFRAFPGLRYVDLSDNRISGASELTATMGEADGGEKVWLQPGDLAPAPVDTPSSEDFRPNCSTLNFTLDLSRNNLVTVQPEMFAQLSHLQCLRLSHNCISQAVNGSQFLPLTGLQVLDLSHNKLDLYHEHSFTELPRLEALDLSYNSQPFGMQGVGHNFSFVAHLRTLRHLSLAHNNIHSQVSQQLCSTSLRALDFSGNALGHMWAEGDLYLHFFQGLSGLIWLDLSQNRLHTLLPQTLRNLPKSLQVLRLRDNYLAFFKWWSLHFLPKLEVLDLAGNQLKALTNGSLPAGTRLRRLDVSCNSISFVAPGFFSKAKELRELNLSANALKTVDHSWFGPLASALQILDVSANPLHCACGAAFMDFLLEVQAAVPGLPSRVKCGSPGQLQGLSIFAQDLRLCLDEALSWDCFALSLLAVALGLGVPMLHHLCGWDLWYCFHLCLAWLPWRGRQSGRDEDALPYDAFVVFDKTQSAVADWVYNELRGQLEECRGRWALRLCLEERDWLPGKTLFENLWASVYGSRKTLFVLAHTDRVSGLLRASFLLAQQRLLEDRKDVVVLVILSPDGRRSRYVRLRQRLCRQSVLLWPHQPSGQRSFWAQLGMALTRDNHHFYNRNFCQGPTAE

Chain of human TLR7 (Q9NYK1 27-1049): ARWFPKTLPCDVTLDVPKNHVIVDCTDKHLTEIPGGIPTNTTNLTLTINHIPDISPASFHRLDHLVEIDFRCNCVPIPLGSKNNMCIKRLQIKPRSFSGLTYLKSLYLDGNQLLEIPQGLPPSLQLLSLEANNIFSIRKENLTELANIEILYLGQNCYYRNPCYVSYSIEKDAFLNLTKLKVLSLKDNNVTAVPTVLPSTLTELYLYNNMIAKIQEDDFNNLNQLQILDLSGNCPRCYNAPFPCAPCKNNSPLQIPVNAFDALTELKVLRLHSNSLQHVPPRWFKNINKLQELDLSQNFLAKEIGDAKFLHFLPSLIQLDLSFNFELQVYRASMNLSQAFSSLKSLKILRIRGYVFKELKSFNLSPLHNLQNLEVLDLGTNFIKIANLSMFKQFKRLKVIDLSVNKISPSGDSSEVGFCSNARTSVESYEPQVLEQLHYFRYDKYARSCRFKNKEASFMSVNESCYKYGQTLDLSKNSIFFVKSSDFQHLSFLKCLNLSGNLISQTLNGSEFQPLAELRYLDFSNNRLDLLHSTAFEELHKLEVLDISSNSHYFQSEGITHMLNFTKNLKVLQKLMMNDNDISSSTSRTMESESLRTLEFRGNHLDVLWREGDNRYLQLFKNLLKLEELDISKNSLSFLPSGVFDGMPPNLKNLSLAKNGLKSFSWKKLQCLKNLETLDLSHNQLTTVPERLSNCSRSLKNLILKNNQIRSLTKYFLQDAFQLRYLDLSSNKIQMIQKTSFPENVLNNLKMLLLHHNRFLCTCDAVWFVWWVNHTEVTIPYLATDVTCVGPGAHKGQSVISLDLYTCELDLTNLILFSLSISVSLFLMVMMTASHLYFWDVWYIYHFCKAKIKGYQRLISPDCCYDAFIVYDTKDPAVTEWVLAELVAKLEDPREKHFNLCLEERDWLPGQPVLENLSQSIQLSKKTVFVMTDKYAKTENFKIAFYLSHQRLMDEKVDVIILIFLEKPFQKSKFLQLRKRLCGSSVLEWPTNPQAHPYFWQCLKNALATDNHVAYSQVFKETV
Chain of human TLR8 (Q9NR97 27-1041): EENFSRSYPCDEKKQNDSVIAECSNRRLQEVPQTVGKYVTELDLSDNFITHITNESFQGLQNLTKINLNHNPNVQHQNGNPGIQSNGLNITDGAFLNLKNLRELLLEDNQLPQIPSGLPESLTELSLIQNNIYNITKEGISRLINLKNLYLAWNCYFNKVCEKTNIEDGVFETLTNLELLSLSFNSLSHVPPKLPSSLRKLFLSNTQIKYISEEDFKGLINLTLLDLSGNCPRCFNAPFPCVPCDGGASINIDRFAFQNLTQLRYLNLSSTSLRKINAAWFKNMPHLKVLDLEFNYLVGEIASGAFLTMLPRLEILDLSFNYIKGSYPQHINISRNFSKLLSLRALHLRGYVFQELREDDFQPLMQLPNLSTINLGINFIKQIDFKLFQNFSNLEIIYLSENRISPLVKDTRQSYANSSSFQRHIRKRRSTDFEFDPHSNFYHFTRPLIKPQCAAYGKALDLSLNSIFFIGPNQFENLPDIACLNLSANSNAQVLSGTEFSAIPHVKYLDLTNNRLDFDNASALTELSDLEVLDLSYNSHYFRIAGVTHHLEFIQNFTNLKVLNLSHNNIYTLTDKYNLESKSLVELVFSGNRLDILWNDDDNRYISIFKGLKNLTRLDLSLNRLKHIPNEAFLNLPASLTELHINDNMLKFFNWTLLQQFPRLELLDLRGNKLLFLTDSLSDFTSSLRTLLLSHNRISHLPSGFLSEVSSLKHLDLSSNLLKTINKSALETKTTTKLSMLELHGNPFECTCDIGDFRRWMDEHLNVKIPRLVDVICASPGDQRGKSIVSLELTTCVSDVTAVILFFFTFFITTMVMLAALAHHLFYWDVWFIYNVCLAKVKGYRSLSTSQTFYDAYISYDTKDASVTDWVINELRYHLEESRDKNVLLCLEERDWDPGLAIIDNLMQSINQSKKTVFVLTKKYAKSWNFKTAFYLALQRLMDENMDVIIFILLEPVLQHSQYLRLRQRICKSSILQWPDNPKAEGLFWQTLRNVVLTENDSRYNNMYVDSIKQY

| Structure (SMILES) | IC50 [1] | IC50 [2] | IC50 [3] |
| --- | --- | --- | --- |
| COc1cc(-c2[nH]c3ccc(OC4CCN(CC(=O)N(C)C)CC4)nc3c2C(C)C)cn2ncnc12 [Example 609, 2-(4-((3-isopropyl-2-(8-methoxy-[1,2,4]triazolo[1,5-a]pyridin-6-yl)-1H-pyrrolo[3,2-b]pyridin-5-yl)oxy)piperidin-1-yl)-N,N-dimethylacetamide] | 23 nM | 2.6 nM | 2720 nM |
| COc1cc(-c2[nH]c3ccc(OC4CCC(N(C)C)CC4)nc3c2C(C)C)cn2ncnc12 (stereo not drawn) [Example 610, 4-((3-isopropyl-2-(8-methoxy-[1,2,4]triazolo[1,5-a]pyridin-6-yl)-1H-pyrrolo[3,2-b]pyridin-5-yl)oxy)-N,N-dimethylcyclohexan-1-amine] | 14 nM | 1.5 nM | 1770 nM |
| CCCN(CCC)C1CCC(Oc2ccc3[nH]c(-c4cc(OC)c5ncnn5c4)c(C(C)C)c3n2)CC1 (stereo not drawn) [Example 611, 4-((3-isopropyl-2-(8-methoxy-[1,2,4]triazolo[1,5-a]pyridin-6-yl)-1H-pyrrolo[3,2-b]pyridin-5-yl)oxy)-N,N-dipropylcyclohexan-1-amine] | 17 nM | 8.4 nM | 1930 nM |
| COc1cc(-c2[nH]c3ccc(OC4CN(C(C)C)C4)nc3c2C(C)C)cn2ncnc12 [Example 612, 6-(3-isopropyl-5-((1-isopropylazetidin-3-yl)oxy)-1H-pyrrolo[3,2-b]pyridin-2-yl)-8-methoxy-[1,2,4]triazolo[1,5-a]pyridine] | 56 nM | 13 nM | 3930 nM |
| COc1cc(-c2[nH]c3ccc(OC4CCC(N(C)C)CC4)nc3c2C(C)C)cn2ncnc12 (stereo not drawn) [Example 614, 4-((3-isopropyl-2-(8-methoxy-[1,2,4]triazolo[1,5-a]pyridin-6-yl)-1H-pyrrolo[3,2-b]pyridin-5-yl)oxy)-N,N-dimethylcyclohexan-1-amine] | 13 nM | 1.9 nM | 1010 nM |
| Cc1c(-c2[nH]c3ccc(C4CC(N(C)C(=O)CN(C)C)C4)nc3c2C(C)C)cn2ncnc2c1C (stereo not drawn) [Example 615] | 7.9 nM | 2.4 nM | 1960 nM |
| COc1cc(-c2[nH]c3ccc(C4CC(NCC5(C)COC5)C4)nc3c2C(C)C)cn2ncnc12 (stereo not drawn) [Example 616] | 1.5 nM | 3.6 nM | 1280 nM |
| Cc1c(-c2[nH]c3ccc(C4CC(N)C4)nc3c2C(C)C)cn2ncnc2c1C (stereo not drawn) [Example 617] | 1320 nM | 2220 nM | 20500 nM |
| Cc1c(-c2[nH]c3ccc(C4CC(N(C)CCS(C)(=O)=O)C4)nc3c2C(C)C)cn2ncnc2c1C (stereo not drawn) [Example 621] | 7.5 nM | 7 nM | 14700 nM |
| Cc1c(-c2[nH]c3ccc(C4CC(N(C)CC(=O)N(C)C)C4)nc3c2C(C)C)cn2ncnc2c1C (stereo not drawn) [Example 622] | 14 nM | 30 nM | 5070 nM |
| COc1cc(-c2[nH]c3ccc(C4CC(N(C)C(=O)CN(C)C)C4)nc3c2C(C)C)cn2ncnc12 (stereo not drawn) [Example 625] | 10 nM | 0.72 nM | 978 nM |
| Cc1c(-c2[nH]c3ccc(C4CC(N(C)CC5(C)COC5)C4)nc3c2C(C)C)cn2ncnc2c1C (stereo not drawn) [Example 626] | 8 nM | 29 nM | 13500 nM |
| COc1cc(-c2[nH]c3ccc(C4CC(N(C)CC(=O)N(C)C)C4)nc3c2C(C)C)cn2ncnc12 (stereo not drawn) [Example 627] | 18 nM | 7.9 nM | 4500 nM |
| COc1cc(-c2[nH]c3ccc(C4CC(N(C)C(=O)CN(C)C)C4)nc3c2C(C)C)cn2ncnc12 (stereo not drawn) [Example 630] | 14 nM | 1.9 nM | 1280 nM |
| COc1cc(-c2[nH]c3ccc(C4CC(NC5CCOCC5)C4)nc3c2C(C)C)cn2ncnc12 (stereo not drawn) [Example 632] | 2.2 nM | 3.1 nM | 439 nM |
| Cc1c(-c2[nH]c3ccc(C4CC(N(CC5(C)COC5)CC5(C)COC5)C4)nc3c2C(C)C)cn2ncnc2c1C (stereo not drawn) [Example 633] | 33 nM | 40 nM | 25500 nM |
| Cc1c(-c2[nH]c3ccc(C4CC(N(C)CCS(C)(=O)=O)C4)nc3c2C(C)C)cn2ncnc2c1C (stereo not drawn) [Example 636] | 28 nM | 46 nM | 21600 nM |
| COc1cc(-c2[nH]c3ccc(C4CC(NC(=O)CN(C)C)C4)nc3c2C(C)C)cn2ncnc12 (stereo not drawn) [Example 638] | 7.3 nM | 2.9 nM | 1270 nM |
| COc1cc(-c2[nH]c3ccc(C4CC(N(C)CCS(C)(=O)=O)C4)nc3c2C(C)C)cn2ncnc12 (stereo not drawn) [Example 642] | 26 nM | 14 nM | 18100 nM |
| COc1cc(-c2[nH]c3ccc(C4CN(CC(N)=O)C4)nc3c2C(C)C)cn2ncnc12 [Example 645] | 303 nM | 21 nM | 4090 nM |
| Cc1c(-c2[nH]c3ccc(C4CN(CC(N)=O)C4)nc3c2C(C)C)cn2ncnc2c1C [Example 646] | 11 nM | 2.1 nM | 4140 nM |
| COc1cc(-c2[nH]c3ccc(C4CN(CCS(C)(=O)=O)C4)nc3c2C(C)C)cn2ncnc12 [Example 647] | 26 nM | 2.3 nM | 5890 nM |
| COc1cc(-c2[nH]c3ccc(C4CNC4)nc3c2C(C)C)cn2ncnc12 [Example 648] | 40 nM | 2.1 nM | 2070 nM |
| Cc1c(-c2[nH]c3ccc(C4CNC4)nc3c2C(C)C)cn2ncnc2c1C [Example 649, 6-(5-(azetidin-3-yl)-3-isopropyl-1H-pyrrolo[3,2-b]pyridin-2-yl)-7,8-dimethyl-[1,2,4]triazolo[1,5-a]pyridine] | 10 nM | 6.2 nM | 3280 nM |
| Cc1c(-c2[nH]c3ccc(C4CN(C(=O)CN(C)C)C4)nc3c2C(C)C)cn2ncnc2c1C [Example 650] | 18 nM | 6.7 nM | 3120 nM |
| COc1cc(-c2[nH]c3ccc(C4CN(Cc5c[nH]nn5)C4)nc3c2C(C)C)cn2ncnc12 [Example 651] | 24 nM | 1.7 nM | 687 nM |
| COc1cc(-c2[nH]c3ccc(C4CN(C(=O)CN(C)C)C4)nc3c2C(C)C)cn2ncnc12 [Example 652] | 22 nM | 3 nM | 1600 nM |

Now from value to compound:

| IC50 [1] | IC50 [2] | IC50 [3] | Structure (SMILES) |
| --- | --- | --- | --- |
| 3.2 nM | 2 nM | 1240 nM | COc1cc(-c2[nH]c3ccc(OC4CCN(CC(C)(C)O)CC4)nc3c2C(C)C)cn2ncnc12 [Example 613, 1-(4-((3-isopropyl-2-(8-methoxy-[1,2,4]triazolo[1,5-a]pyridin-6-yl)-1H-pyrrolo[3,2-b]pyridin-5-yl)oxy)piperidin-1-yl)-2-methylpropan-2-ol] |
| 4.6 nM | 4.8 nM | 3700 nM | Cc1c(-c2[nH]c3ccc(C4CC(N(C)C)C4)nc3c2C(C)C)cn2ncnc2c1C (stereo not drawn) [Example 618] |
| 3 nM | 0.43 nM | 865 nM | COc1cc(-c2[nH]c3ccc(C4CC(NC(=O)CN(C)C)C4)nc3c2C(C)C)cn2ncnc12 (stereo not drawn) [Example 619] |
| 2.4 nM | 0.73 nM | 223 nM | COc1cc(-c2[nH]c3ccc(C4CC(N)C4)nc3c2C(C)C)cn2ncnc12 (stereo not drawn) [Example 620] |
| 2 nM | 1.6 nM | 3130 nM | Cc1c(-c2[nH]c3ccc(C4CC(N(C)C)C4)nc3c2C(C)C)cn2ncnc2c1C (stereo not drawn) [Example 623] |
| 2 nM | 3 nM | 2570 nM | Cc1c(-c2[nH]c3ccc(C4CC(NCCS(C)(=O)=O)C4)nc3c2C(C)C)cn2ncnc2c1C (stereo not drawn) [Example 624] |
| 3.3 nM | 2.1 nM | 343 nM | CNC(=O)CNC1CC(c2ccc3[nH]c(-c4cc(OC)c5ncnn5c4)c(C(C)C)c3n2)C1 (stereo not drawn) [Example 628] |
| 6.5 nM | 2.6 nM | 1920 nM | COc1cc(-c2[nH]c3ccc(C4CC(N(C)C)C4)nc3c2C(C)C)cn2ncnc12 (stereo not drawn) [Example 629] |
| 1.9 nM | 4 nM | 3070 nM | CNC(=O)CNC1CC(c2ccc3[nH]c(-c4cn5ncnc5c(C)c4C)c(C(C)C)c3n2)C1 (stereo not drawn) [Example 631] |
| 3 nM | 2 nM | 2370 nM | COc1cc(-c2[nH]c3ccc(C4CC(NCCS(C)(=O)=O)C4)nc3c2C(C)C)cn2ncnc12 (stereo not drawn) [Example 634] |
| 1.1 nM | 5.7 nM | 1780 nM | Cc1c(-c2[nH]c3ccc(C4CC(NC5CCOCC5)C4)nc3c2C(C)C)cn2ncnc2c1C (stereo not drawn) [Example 635] |
| 0.53 nM | 3.8 nM | 1360 nM | Cc1c(-c2[nH]c3ccc(C4CC(NCC5(C)COC5)C4)nc3c2C(C)C)cn2ncnc2c1C (stereo not drawn) [Example 637] |
| 1.9 nM | 0.98 nM | 1470 nM | COc1cc(-c2[nH]c3ccc(C4CC(N(C)C)C4)nc3c2C(C)C)cn2ncnc12 (stereo not drawn) [Example 639] |
| 4.9 nM | 4.9 nM | 13500 nM | COc1cc(-c2[nH]c3ccc(C4CC(N(C)CCS(C)(=O)=O)C4)nc3c2C(C)C)cn2ncnc12 (stereo not drawn) [Example 640] |
| 3.5 nM | 9.2 nM | 3340 nM | Cc1c(-c2[nH]c3ccc(C4CC(N(C)CC(C)(C)O)C4)nc3c2C(C)C)cn2ncnc2c1C (stereo not drawn) [Example 641] |
| 5.3 nM | 5.4 nM | 3170 nM | COc1cc(-c2[nH]c3ccc(C4CC(N(C)CC5(C)COC5)C4)nc3c2C(C)C)cn2ncnc12 (stereo not drawn) [Example 643] |
| 4.5 nM | 2.7 nM | 2690 nM | Cc1c(-c2[nH]c3ccc(C4CC(NC(=O)CN(C)C)C4)nc3c2C(C)C)cn2ncnc2c1C (stereo not drawn) [Example 644] |
